# Results published in US20230058623A1, “NOVEL HETEROARYL-TRIAZOLE COMPOUNDS AS PESTICIDES” (Bayer Aktiengesellschaft, priority 2019, published 2023).
# Assays:
# Format in all cases: in vivo
# [1] = system: fall armyworm larvae (Spodoptera frugiperda); assay: Spodoptera frugiperda spray test; details: 168 h, application rate 100 g/ha, after 7 days, maize leaf sections
# Summary of the method: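 Maize leaf sections sprayed with compound diluted in water with 1000 ppm emulsifier, then infested with larvae once dry. Mortality (%) scored after 7 days; 100% = all caterpillars killed.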
# [2] = system: adult engorged female ticks (Rhipicephalus microplus); assay: Rhipicephalus (Boophilus) microplus injection test; details: 168 h, application rate 4 μg/tick, egg deposition after 7 days, read-out: activity (efficacy: infertile eggs)
# Summary of the method: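 Five adult engorged female ticks injected into the abdomen with 1 μL compound solution in DMSO, then held in a climate chamber. Fertile egg deposition assessed after 7 days, unclear eggs kept until hatching (about 42 days); efficacy 100% = all eggs infertile, 0% = all fertile.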
# [3] = system: adult unfed cat fleas (Ctenocephalides felis); assay: Ctenocephalides felis oral test; details: 48 h, read-out: activity (mortality)
# Experimental: Ctenocephalides felis—Oral Test
# Solvent: dimethyl sulfoxide
# To produce a suitable preparation of active compound, 10 mg of active compound are dissolved in 0.5 mL solvent, and the concentrate is diluted with citrated cattle blood to the desired concentration.
# Approximately 20 adult unfed cat fleas (Ctenocephalides felis) are placed in a flea chamber whose top and bottom is covered with gauze. A chamber whose bottom is sealed with parafilm, is filled with the blood-compound solution and placed on top of the flea chamber, so that the fleas can suck the blood. The blood chamber is heated to 37° C. whereas the flea chamber is kept at room temperature.
# After 2 days mortality in % is determined. 100% means all the fleas have been killed; 0% means none of the fleas have been killed.
# [4] = system: adult cat fleas (Ctenocephalides felis); assay: Ctenocephalides felis in-vitro contact test, adult cat flea; details: application rate 5 μg/cm^2 (=500 g/ha), after 48 hours, read-out: activity (efficacy: fleas dead or moribund)
# Summary of the method: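 Acetone solutions of compound were coated onto inner walls of glass tubes (900 ppm giving 5 μg/cm^2) and dried; 5-10 adult C. felis were then held 48 h at room temperature. Efficacy = % fleas dead or moribund, judged by inability to escape a 45-50° C heating plate within 5 min.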
# [5] = system: green peach aphid (Myzus persicae); assay: Myzus persicae oral test; details: 120 h, read-out: activity (mortality)
# Summary of the method: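 Compound was dissolved at 1 part by weight in 100 parts acetone, then diluted with water to test concentration and combined with IPL41 insect medium (33%+15% sugar). A mixed aphid population fed on this through a parafilm seal, and mortality (%) was scored after 5 days.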
# [6] = system: adult brown dog ticks (Rhipicephalus sanguineus); assay: Rhipicephalus sanguineus in-vitro contact test, adult brown dog ticks; details: application rate 5 μg/cm^2 (=500 g/ha), after 48 hours, read-out: activity (efficacy: ticks dead or moribund)
# Summary of the method: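 Acetone solution (900 ppm giving 5 μg/cm²) coated on inner walls of glass tubes; after drying, 5-10 adult ticks added and held at room temperature 48 h. Ticks then placed on 45-50 °C plate ≤5 min; those unable to climb away scored dead/moribund, efficacy as % affected.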
# [7] = system: Rhipicephalus (Boophilus) microplus larvae (strain Parkhurst, resistant against synthetic pyrethroids); assay: Rhipicephalus (Boophilus) microplus in-vitro contact test, larval cattle tick; details: after 48 hours, read-out: activity (efficacy: larvae dead or moribund); for pest or weed control at 1 µg/cm2, 100 g/ha: application rate 1 μg/cm^2 (=100 g/ha); for pest or weed control at 5 µg/cm2, 500 g/ha: application rate 5 μg/cm^2 (=500 g/ha)
# Summary of the method: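 Acetone solutions were coated onto glass tube walls, giving 5 μg/cm^2 at 900 ppm. Once dry, 20–50 pyrethroid-resistant Parkhurst larvae were added per tube and held 48 h at 27 °C and 85% RH. Efficacy was scored by negative geotaxis as the percentage of dead or moribund larvae.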
# [8] = system: green peach aphid (Myzus persicae); assay: Myzus persicae spray test; details: foliar, 120 h, application rate 100 g/ha, after 5 days, Chinese cabbage leaf disks, read-out: activity (mortality)
# Summary of the method: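 Chinese cabbage leaf disks infested with all aphid instars were sprayed with compound diluted in water containing emulsifier (1000 ppm). Mortality (%) was scored after 5 days, 100% meaning all aphids killed.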
# [9] = system: larvae of the banded cucumber beetle (Diabrotica balteata); assay: Diabrotica balteata spray test; details: 168 h, application rate 100 g/ha (=32 μg/well), after 7 days, wheat seeds, read-out: activity (efficacy: seedlings grown)
# Summary of the method: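 Wheat seeds germinated 1 day on agar were sprayed with compound diluted in water with 1000 ppm emulsifier, then infested with 10-20 Diabrotica balteata larvae. Efficacy in % scored after 7 days: 100% = seedlings grown as untreated, uninfected control; 0% = no seedlings grown.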
SMILES,mortality at 100 g/ha [1] [%],pest or weed control at 0.004 mg [2] [%],mortality at 100 ppm [3] [%],pest or weed control at 5 µg/cm2 [4] [%],mortality at 4 ppm [5] [%],"pest or weed control at 5 µg/cm2, 500 g/ha [6] [%]","pest or weed control at 1 µg/cm2, 100 g/ha [7] [%]","pest or weed control at 5 µg/cm2, 500 g/ha [7] [%]",mortality at 100 g/ha [8] [%],"pest or weed control at 32 µg/disc, 100 g/ha [9] [%]"
Cc1nc([C@H](C)NC(=O)c2cc(Cl)cc(C(F)(F)F)c2)n(-c2ccc(C(=O)N3CC[C@@H](F)C3)cn2)n1 [Example I-19],100,100,100,100,90,100,100,100,,
C[C@@H]1CN(C(=O)c2ccc(-n3ncnc3[C@H](C)NC(=O)c3cc(Cl)cc(C(F)(F)F)c3)nc2)CCO1 [Example I-32],100,100,90,100,100,100,100,100,100,100
C[C@H](NC(=O)c1cc(Cl)cc(C(F)(F)F)c1)c1ncnn1-c1ccc(C(=O)N2CCN(C)CC2)cn1 [Example I-42],,100,80,,,,100,,,80
C[C@H](NC(=O)c1cc(C(F)(F)F)cc(C(F)(F)F)c1)c1ncnn1-c1ccc(C(=O)N2CCCC(O)C2)cn1 (some centres unmarked) [Example I-7],,100,90,90,100,,90,90,,
C[C@H](NC(=O)c1cc(Cl)cc(C(F)(F)F)c1)c1ncnn1-c1ccc(C(=O)N2CCOC[C@@H]2C)cn1 [Example I-37],100,100,80,,,100,100,100,,100
Cc1nc([C@H](C)NC(=O)c2cc(Cl)cc(C(F)(F)F)c2)n(-c2ccc(C(=O)N3CC[C@H](F)C3)cn2)n1 [Example I-18],100,100,100,90,,100,100,90,,
Cc1nc([C@H](C)NC(=O)c2cc(Cl)cc(C(F)(F)F)c2)n(-c2ccc(C(=O)N3CCCC3)cn2)n1 [Example I-22],100,100,80,90,,100,90,90,,
C[C@@H]1CN(C(=O)c2ccc(-n3ncnc3[C@H](C)NC(=O)c3cc(OC(F)(F)F)cc(C4CC4)c3)nc2)C[C@@H](C)O1 [Example I-116],,100,100,100,100,80,100,100,90,80
"CC(NC(=O)c1cc(Br)cc(Br)c1)c1nc(Cl)nn1-c1ccc(C(=O)N2CCOCC2)cn1 (racemic) [Example I-87, 3,5-Dibromo-N-[1-[5-chloro-2-[5-(morpholine-4-carbonyl)-2-pyridyl]-1,2,4-triazol-3-yl]ethyl]benzamide]",,100,90,,,,100,90,,
